Test results from PubChem BioAssay (NCI).
“And” between values parts separate entries of the source, which are not always exact repeats. Equal values may be shown once.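 Following 48 hours of exposure in 96-well plates, responses at five concentrations were used to interpolate endpoints linearly. GI50 = concentration required for 50% inhibition of growth. TGI: total growth inhibition.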

Experiments:
Assay in all cases: growth of human tumour cells (NCI), 48 h
SK-MEL-5 melanoma = system: SK-MEL-5 melanoma
MOLT-4 leukemia = system: MOLT-4 leukemia
A549 NSCLC = system: A549 NSCLC
NCI-H460 lung = system: NCI-H460 lung
NCI-H226 lung = system: NCI-H226 lung
OVCAR-8 ovarian = system: OVCAR-8 ovarian
ACHN renal = system: ACHN renal
T-47D breast = system: T-47D breast
HS 578T breast = system: HS 578T breast
MDA-MB-435 = system: MDA-MB-435

| SMILES | TGI (SK-MEL-5 melanoma) | TGI (MOLT-4 leukemia) | TGI (A549 NSCLC) | TGI (NCI-H460 lung) | TGI (NCI-H226 lung) | TGI (OVCAR-8 ovarian) | TGI (ACHN renal) | TGI (T-47D breast) | TGI (HS 578T breast) | TGI (MDA-MB-435) | GI50 (SK-MEL-5 melanoma) | GI50 (A549 NSCLC) | GI50 (NCI-H460 lung) | GI50 (NCI-H226 lung) | GI50 (HS 578T breast) | GI50 (MDA-MB-435) | GI50 (MOLT-4 leukemia) | GI50 (OVCAR-8 ovarian) | GI50 (ACHN renal) | GI50 (T-47D breast) |
| --- | --- | --- | --- | --- | --- | --- | --- | --- | --- | --- | --- | --- | --- | --- | --- | --- | --- | --- | --- | --- |
| CC(C)(O)[C@@H]1CC[C@@]2(C)CCC[C@H](O)[C@H]2C1 | > 100 µM | > 100 µM | > 100 µM | > 100 µM | > 100 µM | > 100 µM | > 100 µM | – | – | – | – | – | – | – | – | – | – | – | – | – |
| COc1ccc(OC)c(NCC#N)c1 | > 100 µM | > 100 µM | > 100 µM | > 100 µM | > 100 µM | > 100 µM | > 100 µM | – | – | – | – | – | – | – | – | – | – | – | – | – |
| CSc1nc(SC)c2c(C(N)=S)[nH]nc2n1 | 34.1 µM | 99.3 µM | 65.6 µM | 64.8 µM | 62.6 µM | > 100 µM | 74.7 µM | – | – | – | – | – | – | – | – | – | – | – | – | – |
| COc1ccc2nc(NCN3C(=O)c4ccccc4C3=O)sc2c1 | > 100 µM | > 100 µM | > 100 µM | > 100 µM | – | > 100 µM | > 100 µM | > 100 µM | > 100 µM | > 100 µM | – | – | – | – | – | – | – | – | – | – |
| O=[P+](O)c1cc2ccccc2c2ccccc12 | > 100 µM | > 100 µM | > 100 µM | > 100 µM | > 100 µM | > 100 µM | – | – | – | – | – | – | – | – | – | – | – | – | – | – |
| CC(=O)OC(C)(C)/C=C/C(=O)[C@](C)(O)[C@H]1[C@H](O)C[C@@]2(C)[C@@H]3CC=C4[C@@H](C[C@H](O)C(=O)C4(C)C)[C@]3(CO)C(=O)C[C@]12C | 0.894 µM and 1.33 µM | 58.3 µM | 22.6 µM | 17.9 µM | 0.776 µM and 0.293 µM | 23.8 µM | 0.882 µM and 0.844 µM | – | – | – | 0.171 µM | 0.273 µM | 0.407 µM | 0.29 µM | – | – | – | – | – | – |
| CC1=C(C(=O)Nc2ccc([N+](=O)[O-])cc2)C(c2ccccc2O)C(C(=O)Nc2ccc([N+](=O)[O-])cc2)=C(C)N1 | 31.8 µM | 52.8 µM | 90.4 µM | 56.4 µM | 46.9 µM | > 100 µM | 58 µM | – | – | – | – | – | – | – | – | – | – | – | – | – |
| CN1CCN(C(=O)c2c(NC(=O)NS(=O)(=O)c3ccccc3)sc3c2CCCCC3)CC1 | 40.2 µM | > 100 µM | > 100 µM | > 100 µM | > 100 µM | > 100 µM | > 100 µM | – | > 100 µM | 67.8 µM | 20.5 µM | 65.7 µM | 51 µM | 33.1 µM | 40.3 µM | 26.2 µM | > 100 µM | 53.5 µM | 30.7 µM | – |
| Cc1ccc(-c2cc(=O)c3cc(C)c(C)c(C(=O)O)c3o2)cc1 | > 100 µM | > 100 µM | > 100 µM | > 100 µM | – | > 100 µM | > 100 µM | – | – | – | – | – | – | – | – | – | – | – | – | – |
| NC(=O)C(=Cc1ccc(CP(=O)(O)O)cc1)C(N)=O | > 100 µM | > 100 µM | > 100 µM | > 100 µM | – | > 100 µM | > 100 µM | – | – | – | – | – | – | – | – | – | – | – | – | – |
| O=C1C2CC=CCC2C(=O)C12CCc1ccccc12 (stereo unspecified) | – | – | > 100 µM | > 100 µM | – | > 100 µM | > 100 µM | – | – | – | – | – | – | – | – | – | – | – | – | – |
| COc1ccc2c(c1)c1nc3cc(C)c(C)cc3nc1n2CCN(C)C | 3.01 µM | 4.94 µM | 2.19 µM | 1.39 µM | 2.97 µM | – | 1.48 µM | 4.25 µM | 6.23 µM | 2.51 µM | 1.62 µM | 0.495 µM | 0.369 µM | 1.01 µM | 1.77 µM | 1.09 µM | 0.42 µM | – | 0.375 µM | 1.2 µM |
